How the values were obtained:
Assay in all cases: relative viability (nuclei count vs DMSO), 5 days (fraction); higher = more cells survive
[1] = system: COR-L23
How it was run: (§1)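 Lung cancer cell lines in 1536-well plates were dosed by pin tool the day after seeding, either with one drug alone or with a fixed anchor-drug dose plus five library-drug doses (not always all listed) in √10 steps. After 5 days, cells were fixed and their nuclei stained in one step (final 0.05% Triton X-100, 1% formaldehyde, 1 ug/ml Hoechst), then counted on 4× images. Relative viability is the nuclei count in treated wells divided by that in vehicle wells. Values are medians of duplicate plates.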

[2] = system: NCI-H1651
How it was run: as §1

[3] = system: ChaGo-K-1
How it was run: as §1

[4] = system: IA-LM
How it was run: as §1

[5] = system: NCI-H1437
How it was run: as §1

[6] = system: EBC-1
How it was run: as §1

[7] = system: NCI-H1703
How it was run: as §1

[8] = system: SW 1573
How it was run: as §1

[9] = system: SK-MES-1
How it was run: as §1

[10] = system: A549
How it was run: as §1

[11] = system: Calu-6
How it was run: as §1

[12] = system: NCI-H1299
How it was run: as §1

[13] = system: ABC-1
How it was run: as §1

`CCN(CC)CCCCNc1ncc2cc(-c3cc(OC)cc(OC)c3)c(NC(=O)NC(C)(C)C)nc2n1` + CC1(C)CCC(c2ccc(Cl)cc2)=C(CN2CCN(c3ccc(C(=O)NS(=O)(=O)c4ccc(N[C@H](CCN5CCOCC5)CSc5ccccc5)c(S(=O)(=O)C(F)(F)F)c4)cc3)CC2)C1 [Navitoclax] (partner 0.5 µM) was tested. Which relative viability ([1]; first compound 0.01 µM) did it give?
The relative viability was 1.14.

And the relative viability ([1]; first compound 0.03162 µM)?
The relative viability was 1.12.

And the relative viability ([1]; first compound 0.1 µM)?
Its relative viability is 1.33.

What about the relative viability ([1]; first compound 0.3162 µM) of the same molecule?
Its relative viability is 1.18.

What about the relative viability ([1]; first compound 1 µM) of the same molecule?
The relative viability was 1.12.

And the relative viability ([2]; first compound 0.01 µM)?
The relative viability was 0.983.

What about the relative viability ([2]; first compound 0.03162 µM) of the same molecule?
The relative viability was 1.09.

What about the relative viability ([2]; first compound 0.1 µM) of the same molecule?
The relative viability was 1.25.

And the relative viability ([2]; first compound 0.3162 µM)?
Its relative viability is 1.23.

What about the relative viability ([2]; first compound 1 µM) of the same molecule?
Its relative viability is 1.03.

What about the relative viability ([3]; first compound 0.01 µM) of the same molecule?
Its relative viability is 0.844.

And the relative viability ([3]; first compound 0.03162 µM)?
Its relative viability is 0.893.

What about the relative viability ([3]; first compound 0.1 µM) of the same molecule?
The relative viability was 1.49.

And the relative viability ([3]; first compound 0.3162 µM)?
Its relative viability is 1.16.

And the relative viability ([3]; first compound 1 µM)?
The relative viability was 0.716.

And the relative viability ([4]; first compound 0.01 µM)?
Its relative viability is 0.746.

What about the relative viability ([4]; first compound 0.03162 µM) of the same molecule?
The relative viability was 0.882.

What about the relative viability ([4]; first compound 0.1 µM) of the same molecule?
The relative viability was 0.969.

And the relative viability ([4]; first compound 0.3162 µM)?
Its relative viability is 0.73.

What about the relative viability ([4]; first compound 1 µM) of the same molecule?
Its relative viability is 0.866.

And the relative viability ([5]; first compound 0.01 µM)?
Its relative viability is 1.11.

What about the relative viability ([5]; first compound 0.03162 µM) of the same molecule?
The relative viability was 1.1.

And the relative viability ([5]; first compound 0.1 µM)?
Its relative viability is 1.35.

And the relative viability ([5]; first compound 0.3162 µM)?
Its relative viability is 1.22.

What about the relative viability ([5]; first compound 1 µM) of the same molecule?
The relative viability was 1.04.

What about the relative viability ([6]; first compound 0.01 µM) of the same molecule?
The relative viability was 0.339.

And the relative viability ([6]; first compound 0.03162 µM)?
Its relative viability is 0.469.

What about the relative viability ([6]; first compound 0.1 µM) of the same molecule?
Its relative viability is 0.442.

And the relative viability ([6]; first compound 0.3162 µM)?
The relative viability was 0.357.

And the relative viability ([6]; first compound 1 µM)?
Its relative viability is 0.37.

And the relative viability ([7]; first compound 0.01 µM)?
Its relative viability is 1.07.

What about the relative viability ([7]; first compound 0.1 µM) of the same molecule?
The relative viability was 1.04.

And the relative viability ([7]; first compound 0.3162 µM)?
The relative viability was 1.32.

And the relative viability ([7]; first compound 1 µM)?
Its relative viability is 0.925.

And the relative viability ([8]; first compound 0.01 µM)?
Its relative viability is 0.958.

And the relative viability ([8]; first compound 0.03162 µM)?
The relative viability was 0.963.

And the relative viability ([8]; first compound 0.1 µM)?
The relative viability was 1.31.

And the relative viability ([8]; first compound 0.3162 µM)?
The relative viability was 1.25.

And the relative viability ([8]; first compound 1 µM)?
The relative viability was 1.01.

And the relative viability ([9]; first compound 0.01 µM)?
The relative viability was 1.27.

What about the relative viability ([9]; first compound 0.03162 µM) of the same molecule?
The relative viability was 1.37.

And the relative viability ([9]; first compound 0.1 µM)?
Its relative viability is 1.6.

And the relative viability ([9]; first compound 0.3162 µM)?
The relative viability was 1.36.

And the relative viability ([9]; first compound 1 µM)?
Its relative viability is 1.22.

And the relative viability ([10]; first compound 0.01 µM)?
Its relative viability is 1.16.

What about the relative viability ([10]; first compound 0.03162 µM) of the same molecule?
The relative viability was 1.24.

And the relative viability ([10]; first compound 0.1 µM)?
The relative viability was 1.53.

And the relative viability ([10]; first compound 0.3162 µM)?
The relative viability was 1.23.

And the relative viability ([10]; first compound 1 µM)?
The relative viability was 1.07.

What about the relative viability ([11]; first compound 0.01 µM) of the same molecule?
Its relative viability is 0.729.

What about the relative viability ([11]; first compound 0.03162 µM) of the same molecule?
Its relative viability is 0.946.

And the relative viability ([11]; first compound 0.1 µM)?
The relative viability was 1.03.

What about the relative viability ([11]; first compound 0.3162 µM) of the same molecule?
The relative viability was 1.01.

What about the relative viability ([11]; first compound 1 µM) of the same molecule?
Its relative viability is 0.748.

What about the relative viability ([12]; first compound 0.01 µM) of the same molecule?
Its relative viability is 1.08.

And the relative viability ([12]; first compound 0.03162 µM)?
Its relative viability is 1.01.

And the relative viability ([12]; first compound 0.1 µM)?
Its relative viability is 1.08.

And the relative viability ([12]; first compound 0.3162 µM)?
The relative viability was 1.09.

What about the relative viability ([12]; first compound 1 µM) of the same molecule?
The relative viability was 1.01.

`O=c1cc(N2CCOCC2)oc2c(-c3cccc4c3sc3ccccc34)cccc12` + CS(=O)(=O)CCNCc1ccc(-c2ccc3ncnc(Nc4ccc(OCc5cccc(F)c5)c(Cl)c4)c3c2)o1 [Lapatinib] (partner 2 µM) was tested. Which relative viability ([1]; first compound 0.01 µM) did it give?
Its relative viability is 1.01.

And the relative viability ([1]; first compound 0.03162 µM)?
Its relative viability is 0.823.

What about the relative viability ([1]; first compound 0.1 µM) of the same molecule?
The relative viability was 0.924.

What about the relative viability ([1]; first compound 0.3162 µM) of the same molecule?
The relative viability was 0.843.

And the relative viability ([1]; first compound 1 µM)?
Its relative viability is 1.

And the relative viability ([2]; first compound 0.01 µM)?
The relative viability was 0.746.

And the relative viability ([2]; first compound 0.03162 µM)?
The relative viability was 0.909.

What about the relative viability ([2]; first compound 0.1 µM) of the same molecule?
Its relative viability is 0.875.

And the relative viability ([2]; first compound 0.3162 µM)?
Its relative viability is 0.741.

What about the relative viability ([2]; first compound 1 µM) of the same molecule?
The relative viability was 0.878.

And the relative viability ([4]; first compound 0.01 µM)?
The relative viability was 0.764.

What about the relative viability ([4]; first compound 0.03162 µM) of the same molecule?
The relative viability was 0.582.

What about the relative viability ([4]; first compound 0.1 µM) of the same molecule?
The relative viability was 0.663.

And the relative viability ([4]; first compound 0.3162 µM)?
Its relative viability is 0.86.

And the relative viability ([4]; first compound 1 µM)?
Its relative viability is 0.602.

And the relative viability ([5]; first compound 0.01 µM)?
The relative viability was 0.793.

What about the relative viability ([5]; first compound 0.03162 µM) of the same molecule?
Its relative viability is 0.783.

And the relative viability ([5]; first compound 0.1 µM)?
The relative viability was 0.811.

What about the relative viability ([5]; first compound 0.3162 µM) of the same molecule?
The relative viability was 0.849.

What about the relative viability ([5]; first compound 1 µM) of the same molecule?
The relative viability was 0.813.

And the relative viability ([6]; first compound 0.01 µM)?
Its relative viability is 0.227.

And the relative viability ([6]; first compound 0.03162 µM)?
Its relative viability is 0.207.

What about the relative viability ([6]; first compound 0.1 µM) of the same molecule?
Its relative viability is 0.246.

What about the relative viability ([6]; first compound 0.3162 µM) of the same molecule?
Its relative viability is 0.237.

What about the relative viability ([6]; first compound 1 µM) of the same molecule?
The relative viability was 0.227.

What about the relative viability ([7]; first compound 0.01 µM) of the same molecule?
The relative viability was 1.36.

And the relative viability ([7]; first compound 0.03162 µM)?
Its relative viability is 0.815.

And the relative viability ([7]; first compound 0.1 µM)?
The relative viability was 1.27.

And the relative viability ([7]; first compound 0.3162 µM)?
The relative viability was 1.17.

And the relative viability ([7]; first compound 1 µM)?
The relative viability was 1.01.

What about the relative viability ([13]; first compound 0.01 µM) of the same molecule?
The relative viability was 1.07.

What about the relative viability ([13]; first compound 0.03162 µM) of the same molecule?
Its relative viability is 1.07.

What about the relative viability ([13]; first compound 0.1 µM) of the same molecule?
Its relative viability is 1.6.

What about the relative viability ([13]; first compound 0.3162 µM) of the same molecule?
Its relative viability is 1.04.

And the relative viability ([13]; first compound 1 µM)?
The relative viability was 1.2.

What about the relative viability ([8]; first compound 0.01 µM) of the same molecule?
Its relative viability is 0.21.

What about the relative viability ([8]; first compound 0.03162 µM) of the same molecule?
The relative viability was 1.22.

And the relative viability ([8]; first compound 0.1 µM)?
The relative viability was 1.06.

And the relative viability ([8]; first compound 0.3162 µM)?
Its relative viability is 1.07.

And the relative viability ([8]; first compound 1 µM)?
The relative viability was 1.14.

What about the relative viability ([9]; first compound 0.01 µM) of the same molecule?
Its relative viability is 0.51.

And the relative viability ([9]; first compound 0.03162 µM)?
Its relative viability is 0.53.

And the relative viability ([9]; first compound 0.1 µM)?
Its relative viability is 0.487.

What about the relative viability ([9]; first compound 0.3162 µM) of the same molecule?
Its relative viability is 0.453.

And the relative viability ([9]; first compound 1 µM)?
The relative viability was 0.407.

And the relative viability ([10]; first compound 0.01 µM)?
The relative viability was 0.964.

What about the relative viability ([10]; first compound 0.03162 µM) of the same molecule?
The relative viability was 0.931.

And the relative viability ([10]; first compound 0.1 µM)?
Its relative viability is 0.997.

And the relative viability ([10]; first compound 0.3162 µM)?
The relative viability was 0.979.

What about the relative viability ([10]; first compound 1 µM) of the same molecule?
The relative viability was 0.968.

What about the relative viability ([11]; first compound 0.01 µM) of the same molecule?
Its relative viability is 1.08.

And the relative viability ([11]; first compound 0.03162 µM)?
The relative viability was 1.11.

What about the relative viability ([11]; first compound 0.1 µM) of the same molecule?
The relative viability was 1.17.

And the relative viability ([11]; first compound 0.3162 µM)?
The relative viability was 1.08.

And the relative viability ([11]; first compound 1 µM)?
Its relative viability is 1.05.

And the relative viability ([12]; first compound 0.01 µM)?
The relative viability was 0.957.

What about the relative viability ([12]; first compound 0.03162 µM) of the same molecule?
The relative viability was 0.957.

And the relative viability ([12]; first compound 0.1 µM)?
The relative viability was 0.969.

And the relative viability ([12]; first compound 0.3162 µM)?
Its relative viability is 0.961.

What about the relative viability ([12]; first compound 1 µM) of the same molecule?
The relative viability was 0.964.
